Assay results reported in ChEMBL document CHEMBL1159083, “An octahydro-cyclopenta[c]pyrrole series of inhibitors of the type 1 glycine transporter” (Bioorg Med Chem Lett, 2010).

test: Half life in human microsomes; format: ADME, Microsome

Q: For CN1C[C@H]2C[C@@H](N(Cc3ccc(F)c(C(F)(F)F)c3)C(=O)c3cn(C)cn3)C[C@H]2C1, which half-life is on record?
A: The half-life was over 120 min.

Q: Which half-life does the source give for Cn1cnc(C(=O)N(Cc2cccc(OC(F)(F)F)c2)[C@@H]2C[C@@H]3CN(CC(C)(C)O)C[C@@H]3C2)c1 here?
A: The half-life was 7.06 min.

Q: With Cn1cnc(C(=O)N(Cc2cccc(OC(F)(F)F)c2)[C@@H]2C[C@@H]3CN(CC(O)c4ccccc4)C[C@@H]3C2)c1 (stereo partly specified) as the compound, how does the half-life read?
A: Its half-life is 8.19 min.

Q: With COc1ccc(CN(C(=O)c2cn(C)cn2)[C@H]2C[C@H]3CNC[C@H]3C2)cc1OC1CCCC1 as the compound, how does the half-life read?
A: Its half-life is over 120 min.

Q: Which half-life does the source give for Cn1cnc(C(=O)N(Cc2ccc(F)c(C(F)(F)F)c2)[C@@H]2C[C@H]3CNC[C@H]3C2)c1 here?
A: Its half-life is over 120 min.

Q: Which half-life does the source give for Cn1cnc(C(=O)N(Cc2ccc(F)c(OC3CCCC3)c2)[C@H]2C[C@H]3CNC[C@H]3C2)c1 here?
A: Its half-life is over 111 min.

Q: Which half-life does the source give for CN1C[C@H]2C[C@@H](N(Cc3cccc(OC(F)(F)F)c3)C(=O)c3cn(C)cn3)C[C@H]2C1 here?
A: The half-life was 30.5 min.

Q: Which half-life does the source give for CC(F)CN1C[C@H]2C[C@@H](N(Cc3cccc(OC(F)(F)F)c3)C(=O)c3cn(C)cn3)C[C@H]2C1 (stereo partly specified) here?
A: Its half-life is under 3.2 min.

Q: For CCN1C[C@H]2C[C@@H](N(Cc3ccc(F)c(C(F)(F)F)c3)C(=O)c3cn(C)cn3)C[C@H]2C1, which half-life is on record?
A: The half-life was over 120 min.

Q: With CC(C)Oc1cccc(CN(C(=O)c2cn(C)cn2)[C@H]2C[C@H]3CNC[C@H]3C2)c1 as the compound, how does the half-life read?
A: Its half-life is over 120 min.

Q: Which half-life does the source give for Cn1cnc(C(=O)N(Cc2cccc(OC(F)(F)F)c2)[C@@H]2C[C@@H]3CN(CCC(F)(F)F)C[C@@H]3C2)c1 here?
A: Its half-life is under 3.2 min.

Q: With CN1C[C@H]2C[C@@H](N(Cc3ccc(F)c(OC4CCCC4)c3)C(=O)c3cn(C)cn3)C[C@H]2C1 as the compound, how does the half-life read?
A: Its half-life is 78.1 min.

Q: With Cn1cnc(C(=O)N(Cc2cccc(OC3CCCC3)c2)[C@H]2C[C@H]3CNC[C@H]3C2)c1 as the compound, how does the half-life read?
A: Its half-life is over 120 min.

Q: With Cn1cnc(C(=O)N(Cc2ccc(F)c(C(F)(F)F)c2)[C@H]2C[C@H]3CNC[C@H]3C2)c1 as the compound, how does the half-life read?
A: Its half-life is over 120 min.

Q: For Cn1cnc(C(=O)N(Cc2cccc(OC(F)(F)F)c2)[C@H]2C[C@H]3CNC[C@H]3C2)c1, which half-life is on record?
A: Its half-life is 50 min.

Q: With CCN1C[C@H]2C[C@@H](N(Cc3cccc(OC(F)(F)F)c3)C(=O)c3cn(C)cn3)C[C@H]2C1 as the compound, how does the half-life read?
A: Its half-life is 10 min.
